≈ marks a conversion by molar mass, not a printed value.
How the values were obtained:
[1] = cited from earlier work
[2] = Solubility of active ingredient; type: physicochemical
Description: Formulations of water dispersible granules comprising microcapsules encapsulating active ingredients with higher water solubilities: • a. […] When attempting to prepare water dispersible granules comprising microcapsules of Thiamethoxam as per an embodiment of this invention, it was observed that Thiamethoxam was not soluble in the solvent C-9. It is observed that thiamethoxam decomposed immediately beyond its melting point. On attempting to add methylene diphenyl diisocyanate (MDI) in molten Thiamethoxam, it polymerized immediately due to high temperature. Thus Thiamethoxam could not be microencapsulated and it was not possible to prepare its water dispersible granular formulation. • b. […] A water dispersible granular composition comprising microcapsules of 25% Propoxur within a polyurea shell wall with Gohensol GL-03 was made, according to an embodiment of the invention, including maltodextrin as a water soluble suspension adjuvant in the filler base, along with clay, sodium lignosulfonate and alkyl naphthalene sulfonate (Supragil WP). The suspensibility observed was 85%. A water dispersible granule composition comprising microcapsules of 25% Propoxur was prepared with the microcapsules having a polyurea shell wall and polyvinyl alcohol Gohensol GL-03. […]

CNC(=O)Oc1ccccc1OC(C)C [Propoxur]
solubility in water [1]: 1800 µg/mL (≈ 8.6 mM)

CN1COCN(Cc2cnc(Cl)s2)/C1=N\[N+](=O)[O-] [Thiamethoxam]
solubility in the solvent C-9 [2]: not soluble
